pIC50: −log10 of the molar value.
Target: T1, NPY Y2 receptor (Homo sapiens, UniProt P49146)
T1 sequence (P49146 1-381): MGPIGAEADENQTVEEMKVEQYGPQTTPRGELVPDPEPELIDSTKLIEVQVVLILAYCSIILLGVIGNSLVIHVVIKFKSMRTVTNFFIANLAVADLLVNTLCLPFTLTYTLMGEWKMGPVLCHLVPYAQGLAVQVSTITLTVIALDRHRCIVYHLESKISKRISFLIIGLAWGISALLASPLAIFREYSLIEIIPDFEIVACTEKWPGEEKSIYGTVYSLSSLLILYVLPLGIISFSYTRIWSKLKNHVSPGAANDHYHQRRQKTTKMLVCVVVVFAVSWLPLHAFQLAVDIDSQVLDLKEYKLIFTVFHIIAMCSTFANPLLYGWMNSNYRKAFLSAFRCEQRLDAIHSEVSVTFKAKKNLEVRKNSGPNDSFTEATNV
Test: Neuropeptide Y2 radioligand binding assay ([125I]PYY, KAN-Ts membranes)
Set-up: endogenous in cells; host or cells: KAN-Ts cells (membrane preparation)
Conditions: KAN-Ts membranes endogenously expressing Y2, [125I]PYY (80 pM), 1 h at rt
Protocol: KAN-Ts endogenously expressing Y2 receptors were used for the radioligand binding assay. Cells were grown to confluence on 150 cm^2 tissue culture plates, washed with phosphate-buffered saline (PBS), and scraped into 50 mL tubes. After centrifugation, the supernatant was aspirated, and the pellets frozen and stored at −80° C. Thawed pellets were homogenized with a polytron tissue grinder for 15 sec in 20 mM Tris-HCl, 5 mM EDTA. The homogenate was centrifuged at 800×g for 5 min and the collected supernatant was recentrifuged at 25000×g for 25 min. The resulting pellet was resuspended in binding buffer (20 mM HEPES, 120 mM NaCl, 0.22 mM KH2PO4, 1.3 mM CaCl2, 0.8 mM MgSO4). Membranes were incubated with [^125I]PYY (80 pM) in the presence or absence of test compound for 1 h at rt. The reaction was stopped by filtration through GF/C filter plates pre-soaked in 0.3% polyethylenimine and subsequently washed with Tris 50 mM, 5 mM EDTA buffer. Plates were dried for 1 h in a 55° C. oven, scintillation fluid was added and the radioactivity was counted in a Packard TopCount. Specific binding to the NPY receptor subtypes was determined by radioactivity that was bound in the presence of […]. Each binding experiment was repeated three to eight times, each in duplicate. IC50 values (i.e. concentration of unlabelled peptide or antagonist required to compete for 50% of specific binding to the radioligand) were calculated using the GraphPad Prism software (GraphPad Software Inc., San Diego Calif.) with a fit to a sigmoidal dose response curve. Apparent K, values were calculated as Ki=IC50/(1+C/KD), where C is concentration of the radioligand.

SMILES	pIC50
CCC(CC)C(=O)Nc1ccc(N2CCN(C(c3ccc(OC)cc3)c3ncco3)CC2)c(F)c1 (stereo not shown) [Compound 140, 2-Ethyl-N-(3-fluoro-4-{4-[(4-methoxy-phenyl)-oxazol-2-yl-methyl]-piperazin-1-yl}-phenyl)-butyramide]	6.49
Cc1ccccc1C(=O)Nc1ccc(N2CCN(C(c3ccccc3)c3ncco3)CC2)c(C#N)c1 (stereo not shown) [Compound 96, N-{3-Cyano-4-[4-(oxazol-2-yl-phenyl-methyl)-piperazin-1-yl]-phenyl}-2-methyl-benzamide]	6.82
CCC(CC)C(=O)Nc1ccc(N2CCN(C(c3ccccc3)c3ncno3)CC2)c(F)c1 (stereo not shown) [Compound 231, 2-Ethyl-N-{3-fluoro-4-[4-([1,2,4]-oxadiazol-5-yl-phenyl-methyl)-piperazin-1-yl]-phenyl}-butyramide]	6.66
O=C(Nc1ccc(N2CCN(C(c3ccccc3)c3ncco3)CC2)c(F)c1)C1CCCC1 (single isomer, unassigned) [Compound 126, Cyclopentanecarboxylic acid {3-fluoro-4-[4-(oxazol-2-yl-phenyl-methyl)-piperazin-1-yl]-phenyl}-amide]	6.47
CCC(CC)C(=O)Nc1ccc(N2CCN(C(c3ccc(OC(F)(F)F)cc3)c3noc(C)n3)CC2)c(F)c1 (stereo not shown) [Compound 281]	7.19
CCC(CC)C(=O)Nc1ccc(N2CCN(C(c3ccccn3)c3ccccn3)CC2)c(F)c1 [Compound 55, N-{4-[4-(Di-pyridin-2-yl-methyl)-piperazin-1-yl]-3-fluoro-phenyl}-2-ethyl-butyramide]	7.27
CCC(CC)C(=O)Nc1ccc(N2CCN(C(c3ccccc3)C3CC3)CC2)c(F)c1 (stereo not shown) [Compound 53, N-{4-[4-(Cyclopropyl-phenyl-methyl)-piperazin-1-yl]-3-fluoro-phenyl}-2-ethyl-butyramide]	7.11
CCC(CC)C(=O)Nc1ccc(N2CCN(C(c3ccc(F)cc3)c3ncco3)CC2)c(F)c1 (stereo not shown) [Compound 120, 2-Ethyl-N-(3-fluoro-4-{4-[(4-fluoro-phenyl)-oxazol-2-yl-methyl]-piperazin-1-yl}-phenyl)-butyramide]	6.11
CC(=O)Nc1ccc(N2CCN(C(c3ccccc3)c3ncco3)CC2)c(F)c1 (stereo not shown) [Compound 104, N-{3-Fluoro-4-[4-(oxazol-2-yl-phenyl-methyl)-piperazin-1-yl]-phenyl}-acetamide]	< 5.00
O=C(Nc1ccc(N2CCN(C(c3ccc(F)cc3)c3ncco3)CC2)c(F)c1)[C@@H]1CCOC1 (stereo in doubt) [Compound 127, Tetrahydro-furan-3-carboxylic acid (3-fluoro-4-{4-[(4-fluoro-phenyl)-oxazol-2-yl-methyl]-piperazin-1-yl}-phenyl)-amide]	< 5.30
CCC(CC)NC(=O)c1ccc(N2CCN(C(c3ccccc3)c3ncco3)CC2)c(F)c1 (stereo not shown) [Compound 46, N-(1-Ethyl-propyl)-3-fluoro-4-[4-(oxazol-2-yl-phenyl-methyl)-piperazin-1-yl]-benzamide]	5.92
CCC(CC)C(=O)Nc1ccc(N2CCN(C(c3ncco3)C3CC3)CC2)c(F)c1 (stereo not shown) [Compound 66, N-{4-[4-(Cyclopropyl-oxazol-2-yl-methyl)-piperazin-1-yl]-3-fluoro-phenyl}-2-ethyl-butyramide]	5.82
CC(CC(F)(F)F)C(=O)Nc1ccc(N2CCN(C(c3ccccc3)c3ncco3)CC2)c(F)c1 (stereo not shown) [Compound 111, 4,4,4-Trifluoro-N-{3-fluoro-4-[4-(oxazol-2-yl-phenyl-methyl)-piperazin-1-yl]-phenyl}-2-methyl-butyramide]	6.44
CCCC(=O)Nc1ccc(N2CCN(C(c3ccccc3)c3ncco3)CC2)c(F)c1 (stereo not shown) [Compound 100, N-{3-Fluoro-4-[4-(oxazol-2-yl-phenyl-methyl)-piperazin-1-yl]-phenyl}-butyramide]	5.89
CCC(CC)C(=O)Nc1ccc(N2CCN(C(c3ncco3)C3CCCCC3)CC2)c(F)c1 (stereo not shown) [Compound 122, N-{4-[4-(Cyclohexyl-oxazol-2-yl-methyl)-piperazin-1-yl]-3-fluoro-phenyl}-2-ethyl-butyramide]	6.37
O=C(Nc1ccc(N2CCN(C(c3ccccc3)c3ncco3)CC2)c(F)c1)C1CCC1 (stereo not shown) [Compound 73, Cyclobutanecarboxylic acid {3-fluoro-4-[4-(oxazol-2-yl-phenyl-methyl)-piperazin-1-yl]-phenyl}-amide]	6.74

SMILES	pIC50
N#Cc1cc(NC(=O)C2CCC(F)(F)CC2)ccc1N1CCN(C(c2ccccc2)c2ncco2)CC1 (stereo not shown) [Compound 109, 4,4-Difluoro-cyclohexanecarboxylic acid {3-cyano-4-[4-(oxazol-2-yl-phenyl-methyl)-piperazin-1-yl]-phenyl}-amide]	5.44
CCC(CC)C(=O)Nc1ccc(N2CCN(C(c3ccc(F)cc3)c3ccc(F)cc3)CC2)c(F)c1 [Compound 12, N-(4-{4-[Bis-(4-fluoro-phenyl)-methyl]-piperazin-1-yl}-3-fluoro-phenyl)-2-ethyl-butyramide]	6.48
CCC(CC)C(=O)Nc1ccc(N2CCN(C(c3ncco3)C3CCC3)CC2)c(F)c1 (stereo not shown) [Compound 116, N-{4-[4-(Cyclobutyl-oxazol-2-yl-methyl)-piperazin-1-yl]-3-fluoro-phenyl}-2-ethyl-butyramide]	6.39
O=C(Nc1ccc(N2CCN(C(c3ccccc3)c3ncco3)CC2)c(F)c1)C1CCC(F)(F)CC1 (stereo not shown) [Compound 108, 4,4-Difluoro-cyclohexanecarboxylic acid {3-fluoro-4-[4-(oxazol-2-yl-phenyl-methyl)-piperazin-1-yl]-phenyl}-amide]	< 5.00
CCC(CC)C(=O)Nc1ccc(N2CCN(C(c3ccccc3)C3CCC3)CC2)c(F)c1 (stereo not shown) [Compound 78, N-{4-[4-(Cyclobutyl-phenyl-methyl)-piperazin-1-yl]-3-fluoro-phenyl}-2-ethyl-butyramide]	7.28
Cc1nc(C(c2ccc(OC(F)(F)F)cc2)N2CCN(c3ccc(NC(=O)C4CCOC4)cc3F)CC2)no1 (stereo not shown) [Compound 280]	6.37
CCC(CC)C(=O)Nc1ccc(N2CCN(C(C#N)c3ccccn3)CC2)c(F)c1 (stereo not shown) [Compound 138, N-{4-[4-(Cyano-pyridin-2-yl-methyl)-piperazin-1-yl]-3-fluoro-phenyl}-2-ethyl-butyramide]	< 5.00
Cc1cccc(Nc2ccc(N3CCN(C(c4ccccc4)c4ncco4)CC3)c(F)c2)n1 (stereo not shown) [Compound 62, {3-Fluoro-4-[4-(oxazol-2-yl-phenyl-methyl)-piperazin-1-yl]-phenyl}-(6-methyl-pyridin-2-yl)-amine]	5.33
CCC(CC)C(=O)Nc1ccc(N2CCN(C(c3ccc(Cl)cc3)C3CC3)CC2)c(F)c1 (stereo not shown) [Compound 102, N-(4-{4-[(4-Chloro-phenyl)-cyclopropyl-methyl]-piperazin-1-yl}-3-fluoro-phenyl)-2-ethyl-butyramide]	6.14
CCN(CC)C(=O)Cc1ccc(N2CCN(C(c3ccccc3)c3ccccc3)CC2)c(F)c1 [Compound 51, 2-[4-(4-Benzhydryl-piperazin-1-yl)-3-fluoro-phenyl]-N,N-diethyl-acetamide]	5.81
CCC(CC)C(=O)Nc1ccc(N2CCN(C(c3ccccc3)c3nccn3C)CC2)c(F)c1 (stereo not shown) [Compound 64, 2-Ethyl-N-(3-fluoro-4-{4-[(1-methyl-1H-imidazol-2-yl)-phenyl-methyl]-piperazin-1-yl}-phenyl)-butyramide]	6.77
CCC(CC)C(=O)Nc1ccc(N2CCN(C(c3ccccc3)c3nc(-c4ccccc4)no3)CC2)c(F)c1 (stereo not shown) [Compound 242, 2-Ethyl-N-(3-fluoro-4-{4-[phenyl-(3-phenyl-[1,2,4]-oxadiazol-5-yl)-methyl]-piperazin-1-yl}-phenyl)-butyramide]	7.15
CCC(CC)C(=O)Nc1ccc(N2CCN(C(c3ccccc3)c3ccc(Cl)cc3)CC2)c(F)c1 (stereo not shown) [Compound 13, N-(4-{4-[(4-Chloro-phenyl)-phenyl-methyl]-piperazin-1-yl}-3-fluoro-phenyl)-2-ethyl-butyramide]	6.35
N#Cc1cc(NC(=O)C2CC2)ccc1N1CCN(C(c2ccccc2)c2ncco2)CC1 (stereo not shown) [Compound 101, Cyclopropanecarboxylic acid {3-cyano-4-[4-(oxazol-2-yl-phenyl-methyl)-piperazin-1-yl]-phenyl}-amide]	6.77
CC[C@@H](C)C(=O)Nc1ccc(N2CCN(C(c3ccccc3)c3ncco3)CC2)c(C#N)c1 (stereo in doubt) [Compound 93, N-{3-Cyano-4-[4-(oxazol-2-yl-phenyl-methyl)-piperazin-1-yl]-phenyl}-2-methyl-butyramide]	7.49

Reference: patent US20120129870A1, “PIPERAZINYL DERIVATIVES USEFUL AS MODULATORS OF THE NEUROPEPTIDE Y2 RECEPTOR” (priority 2007, published 2012)
